From ChEMBL document CHEMBL1201862, “PubChem BioAssay data set” (2004)
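Briefly, cells in 96-well plates were exposed to five compound concentrations for 48 h, and endpoints were estimated by linear interpolation. At the GI50, growth is halved.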 The source made the active and inactive calls. Cut-off read from the data, not from the text of the source: active = GI50 up to about 1.1 µM and inactive = higher.

Tests used:
Assay in all cases: NCI tumour cell line growth inhibition, 48 h
OVCAR-4 = tested on: OVCAR-4
K562 = tested on: K562
UACC-257 = tested on: UACC-257
RPMI-8226 = tested on: RPMI-8226
MCF7 = tested on: MCF7
TK-10 = tested on: TK-10
OVCAR-3 = tested on: OVCAR-3
MDA-N = tested on: MDA-N
LOX IMVI = tested on: LOX IMVI
HCT-15 = tested on: HCT-15
DU-145 = tested on: DU-145
OVCAR-8 = tested on: OVCAR-8
CAKI-1 = tested on: CAKI-1
A498 = tested on: A498
HT-29 = tested on: HT-29
Hs-578T = tested on: Hs-578T
SK-OV-3 = tested on: SK-OV-3
OVCAR-5 = tested on: OVCAR-5
SK-MEL-28 = tested on: SK-MEL-28
SF-295 = tested on: SF-295
RXF 393 = tested on: RXF 393
NCI-H226 = tested on: NCI-H226
HOP-92 = tested on: HOP-92
PC-3 = tested on: PC-3
HCC 2998 = tested on: HCC 2998
SW-620 = tested on: SW-620
HCT-116 = tested on: HCT-116
EKVX = tested on: EKVX
IGROV-1 = tested on: IGROV-1
MDA-MB-435 = tested on: MDA-MB-435
SNB-75 = tested on: SNB-75
M14 = tested on: M14
MOLT-4 = tested on: MOLT-4
SNB-19 = tested on: SNB-19
T47D = tested on: T47D
Malme-3M = tested on: Malme-3M
SK-MEL-5 = tested on: SK-MEL-5
786-0 = tested on: 786-0
A549 = tested on: A549
NCI-H460 = tested on: NCI-H460
HOP-62 = tested on: HOP-62
SR = tested on: SR
NCI-H522 = tested on: NCI-H522
ACHN = tested on: ACHN
COLO 205 = tested on: COLO 205
UO-31 = tested on: UO-31
NCI-H23 = tested on: NCI-H23
SF-539 = tested on: SF-539
UACC-62 = tested on: UACC-62
NCI/ADR-RES = tested on: NCI/ADR-RES
KM12 = tested on: KM12
CCRF-CEM = tested on: CCRF-CEM
SF-268 = tested on: SF-268
SN12C = tested on: SN12C
U-251 = tested on: U-251
MDA-MB-231 = tested on: MDA-MB-231
SK-MEL-2 = tested on: SK-MEL-2
HL-60 = tested on: HL-60

Measured: GI50

COc1ccc(Cc2c(-c3ccc(C)cc3)n[nH]c(=O)c2C2C(=O)N(c3ccccc3)N=C2c2ccccc2)cc1 (stereo not drawn)
inactive: OVCAR-4 48.2 µM | K562 28 µM | UACC-257 29.3 µM | RPMI-8226 42 µM | MCF7 44.5 µM | TK-10 29.2 µM | OVCAR-3 19 µM | MDA-N 24.4 µM | LOX IMVI 20.6 µM | DU-145 43.7 µM | OVCAR-8 30.3 µM | CAKI-1 37.1 µM | A498 30.2 µM | HT-29 31.7 µM | Hs-578T 31.6 µM | SK-OV-3 52.8 µM | OVCAR-5 33 µM | SK-MEL-28 33 µM | SF-295 24.3 µM | RXF 393 26.7 µM | NCI-H226 29.4 µM | HOP-92 28 µM | PC-3 26.7 µM | HCC 2998 27.6 µM | SW-620 37.7 µM | HCT-116 21.8 µM | EKVX 26.8 µM | IGROV-1 32.1 µM | MDA-MB-435 20.3 µM | SNB-75 23.9 µM | M14 26.9 µM | MOLT-4 23.1 µM | SNB-19 36.1 µM | T47D > 65.6 µM | Malme-3M 24.1 µM | SK-MEL-5 20.7 µM | 786-0 35.7 µM | A549 31.4 µM | NCI-H460 30.5 µM | HOP-62 40.1 µM | SR 37.1 µM | NCI-H522 44.3 µM | ACHN 30.9 µM | COLO 205 20.7 µM | UO-31 39.7 µM | NCI-H23 25.8 µM | SF-539 25.1 µM | UACC-62 20 µM | NCI/ADR-RES 25.1 µM | KM12 22.3 µM | CCRF-CEM 32.2 µM | SF-268 38.9 µM | SN12C 30.9 µM | U-251 34.8 µM | MDA-MB-231 35.6 µM | SK-MEL-2 21.9 µM | HL-60 39.3 µM
42.9 µM: HCT-15

O=c1[nH]nc(-c2ccccc2)c2[nH]c3c4ccccc4ccc3c12
0.643 µM: HCT-15
inactive: OVCAR-4 1.76 µM | UACC-257 5.82 µM | TK-10 2.17 µM | A498 1.51 µM | Hs-578T 1.79 µM | SK-OV-3 2.61 µM | RXF 393 1.58 µM | NCI-H226 4.14 µM | HOP-92 20.3 µM | PC-3 1.28 µM | EKVX 3.44 µM | IGROV-1 4.24 µM | SNB-75 3.93 µM | M14 2.66 µM | MOLT-4 1.64 µM | SNB-19 1.62 µM | T47D 5.4 µM | Malme-3M 4.83 µM | 786-0 2.1 µM | A549 1.31 µM | HOP-62 2.77 µM | ACHN 1.69 µM | NCI-H23 2.15 µM | UACC-62 1.2 µM | CCRF-CEM 1.56 µM | SF-268 1.33 µM | SN12C 3.87 µM | SK-MEL-2 7.62 µM
active: K562 0.279 µM | RPMI-8226 0.746 µM | MCF7 0.331 µM | OVCAR-3 0.424 µM | MDA-N 0.199 µM | HT-29 0.459 µM | SF-295 0.461 µM | HCC 2998 0.948 µM | SW-620 0.656 µM | HCT-116 0.942 µM | MDA-MB-435 0.193 µM | SK-MEL-5 0.587 µM | NCI-H460 0.56 µM | SR 0.251 µM | NCI-H522 0.753 µM | COLO 205 0.74 µM | SF-539 0.964 µM | NCI/ADR-RES 0.379 µM | KM12 0.692 µM | U-251 0.885 µM | HL-60 0.548 µM
